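Method: 48-hour compound exposure of cells in 96-well plates, five concentrations, linear interpolation of endpoints. TGI denotes the concentration required for complete inhibition of growth.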
Experiments:
Experiment in all cases: NCI-60 cell line screen, 48 h
CAKI-1 renal = system: CAKI-1 renal
HOP-92 NSCLC = system: HOP-92 NSCLC
MOLT-4 leukemia = system: MOLT-4 leukemia
MALME-3M melanoma = system: MALME-3M melanoma
SK-MEL-2 melanoma = system: SK-MEL-2 melanoma
SNB-19 CNS = system: SNB-19 CNS
SR leukemia = system: SR leukemia
OVCAR-5 ovarian = system: OVCAR-5 ovarian
NCI-H522 lung = system: NCI-H522 lung
SF-539 CNS = system: SF-539 CNS
OVCAR-4 ovarian = system: OVCAR-4 ovarian
RPMI-8226 leukemia = system: RPMI-8226 leukemia
PC-3 prostate = system: PC-3 prostate
UACC-257 melanoma = system: UACC-257 melanoma
SF-268 CNS = system: SF-268 CNS
T-47D breast = system: T-47D breast
IGROV1 ovarian = system: IGROV1 ovarian
HCT-15 colon = system: HCT-15 colon
DU-145 prostate = system: DU-145 prostate
RXF 393 renal = system: RXF 393 renal

CCOC(=O)P(=O)(O)c1ccc(N(C)Cc2ccccc2)cc1
TGI (CAKI-1 renal): > 100 µM | TGI (HOP-92 NSCLC): > 100 µM | TGI (MOLT-4 leukemia): > 100 µM | TGI (MALME-3M melanoma): > 100 µM | TGI (SK-MEL-2 melanoma): > 100 µM | TGI (SNB-19 CNS): > 100 µM | TGI (SR leukemia): > 100 µM | TGI (OVCAR-5 ovarian): > 100 µM | TGI (NCI-H522 lung): > 100 µM | TGI (SF-539 CNS): > 100 µM | TGI (OVCAR-4 ovarian): > 100 µM | TGI (RPMI-8226 leukemia): > 100 µM | TGI (PC-3 prostate): > 100 µM | TGI (UACC-257 melanoma): > 100 µM | TGI (SF-268 CNS): > 100 µM | TGI (T-47D breast): > 100 µM | TGI (IGROV1 ovarian): > 100 µM | TGI (HCT-15 colon): > 100 µM | TGI (DU-145 prostate): > 100 µM

COC(=O)c1ccc(C)cc1CC1Cc2cc(C)ccc2C1=O (stereo not drawn)
TGI (CAKI-1 renal): > 100 µM | TGI (MOLT-4 leukemia): > 100 µM | TGI (MALME-3M melanoma): > 100 µM | TGI (SK-MEL-2 melanoma): > 100 µM | TGI (SNB-19 CNS): > 100 µM | TGI (SR leukemia): > 100 µM | TGI (OVCAR-5 ovarian): > 100 µM | TGI (NCI-H522 lung): > 100 µM | TGI (SF-539 CNS): > 100 µM | TGI (OVCAR-4 ovarian): > 100 µM | TGI (RPMI-8226 leukemia): > 100 µM | TGI (PC-3 prostate): > 100 µM | TGI (UACC-257 melanoma): > 100 µM | TGI (SF-268 CNS): > 100 µM | TGI (T-47D breast): > 100 µM | TGI (IGROV1 ovarian): > 100 µM | TGI (HCT-15 colon): > 100 µM

COC(=O)/C=C(/C)n1nc2ccccc2n1
TGI (CAKI-1 renal): > 100 µM | TGI (RXF 393 renal): > 100 µM | TGI (MOLT-4 leukemia): > 100 µM | TGI (MALME-3M melanoma): > 100 µM | TGI (SK-MEL-2 melanoma): > 100 µM | TGI (SNB-19 CNS): > 100 µM | TGI (SR leukemia): > 100 µM | TGI (OVCAR-5 ovarian): > 100 µM | TGI (NCI-H522 lung): > 100 µM | TGI (OVCAR-4 ovarian): > 100 µM | TGI (RPMI-8226 leukemia): > 100 µM | TGI (PC-3 prostate): > 100 µM | TGI (UACC-257 melanoma): > 100 µM | TGI (SF-268 CNS): > 100 µM | TGI (T-47D breast): > 100 µM | TGI (IGROV1 ovarian): > 100 µM | TGI (HCT-15 colon): > 100 µM | TGI (DU-145 prostate): > 100 µM

COC(=O)C1(C(=O)OC)Cc2ccc(OC)cc2C2=C1C(=O)c1ccccc1C2=O
TGI (CAKI-1 renal): 7.72 µM | TGI (HOP-92 NSCLC): 15.9 µM | TGI (MOLT-4 leukemia): 3.97 µM | TGI (MALME-3M melanoma): 26.3 µM | TGI (SK-MEL-2 melanoma): 15.7 µM | TGI (SNB-19 CNS): 33.4 µM | TGI (SR leukemia): > 100 µM | TGI (OVCAR-5 ovarian): 20.2 µM | TGI (NCI-H522 lung): 8.89 µM | TGI (SF-539 CNS): 30.7 µM | TGI (OVCAR-4 ovarian): 3.43 µM | TGI (PC-3 prostate): 4.18 µM | TGI (UACC-257 melanoma): 7.15 µM | TGI (SF-268 CNS): 26.2 µM | TGI (T-47D breast): 6.9 µM | TGI (IGROV1 ovarian): 8.53 µM | TGI (HCT-15 colon): 25.2 µM | TGI (DU-145 prostate): 30.3 µM

CC(=O)NC1C(OCc2ccccc2)OC(CO)C(O)C1OC(C)C(=O)NC(C(=O)N[C@@H](CCC(=O)NCCNCCNc1c2ccccc2nc2cccc([N+](=O)[O-])c12)C(N)=O)C(C)C (stereo partly drawn)
TGI (CAKI-1 renal): > 100 µM | TGI (HOP-92 NSCLC): 69.9 µM | TGI (MOLT-4 leukemia): 53.2 µM | TGI (MALME-3M melanoma): > 100 µM | TGI (SK-MEL-2 melanoma): 46.7 µM | TGI (SNB-19 CNS): > 100 µM | TGI (SR leukemia): 5.24 µM | TGI (SF-539 CNS): 45.6 µM | TGI (OVCAR-4 ovarian): > 100 µM | TGI (RPMI-8226 leukemia): 58.7 µM | TGI (PC-3 prostate): > 100 µM | TGI (SF-268 CNS): > 100 µM | TGI (T-47D breast): > 100 µM | TGI (IGROV1 ovarian): > 100 µM | TGI (HCT-15 colon): > 100 µM | TGI (DU-145 prostate): > 100 µM

CCSc1[nH]c(NC(=S)NC(=O)c2ccccc2Cl)c(C(N)=O)c1C(N)=O
TGI (CAKI-1 renal): > 10 µM | TGI (HOP-92 NSCLC): > 10 µM | TGI (RXF 393 renal): > 10 µM | TGI (MOLT-4 leukemia): > 10 µM | TGI (MALME-3M melanoma): > 10 µM | TGI (SR leukemia): > 10 µM | TGI (OVCAR-4 ovarian): > 10 µM | TGI (RPMI-8226 leukemia): > 10 µM | TGI (PC-3 prostate): > 10 µM | TGI (UACC-257 melanoma): > 10 µM | TGI (SF-268 CNS): > 10 µM | TGI (T-47D breast): > 10 µM | TGI (IGROV1 ovarian): > 10 µM | TGI (HCT-15 colon): > 10 µM | TGI (DU-145 prostate): > 10 µM

O=c1c2c(oc3ccccc13)-c1ccccc1OC2
TGI (CAKI-1 renal): > 100 µM | TGI (MOLT-4 leukemia): > 100 µM | TGI (MALME-3M melanoma): > 100 µM | TGI (SK-MEL-2 melanoma): > 100 µM | TGI (OVCAR-5 ovarian): > 100 µM | TGI (NCI-H522 lung): > 100 µM | TGI (SF-539 CNS): 72.7 µM | TGI (RPMI-8226 leukemia): > 100 µM | TGI (PC-3 prostate): > 100 µM | TGI (UACC-257 melanoma): > 100 µM | TGI (SF-268 CNS): > 100 µM | TGI (T-47D breast): > 100 µM | TGI (IGROV1 ovarian): > 100 µM | TGI (HCT-15 colon): > 100 µM | TGI (DU-145 prostate): > 100 µM
